In patent US9938231B2, “Liquid arylbenzoyl benzoic acid ester derivatives for energy curable compositions” (SUN CHEMICAL CORPORATION, priority 2014, dated 2018):

Experiments:
Assay type in all cases: physicochemical
[1] = Solubility stability of photoinitiator blends; settings: for Behaviour of the solution upon cooling to room temperature: 1:1 mixture with dimethylaminobenzoic acid ethylhexyl ester, dissolved at 50° C.
Method: A 1:1 mixture in weight of 4-phenylbenzoyl benzoic acid ethylhexyl ester and dimethylaminobenzoic acid ethylhexyl ester was transformed into a solution by stirring at room temperature. […] As a comparison experiment, a 1:1 mixture of 4-phenylbenzophenone and dimethylaminobenzoic acid ethylhexyl ester was turned into a solution at elevated temperature of 50° C.

[2] = Solubility in propoxylated pentaerythritol tetraacrylate SR 494 LM (PPTTA); settings: for Solubility in PPTTA: stirred 30 minutes at room temperature
Method: 4-phenylbenzophenone, 4-phenylbenzoyl benzoic acid ethylhexyl ester, and 4-phenylbenzoyl benzoic acid amyl ester were each separately added to the multifunctional acrylate propoxylated pentaerythritol tetraacrylate (SR 494 LM, Sartomer company) (PPTTA) in amounts of 2, 4, 6, and 8 weight % and stirred for 30 minutes at room temperature.

[3] = Solubility in di-pentaerythritol hexaacrylate (DPHA); settings: for Solubility in DPHA: stirred 30 minutes at room temperature
Method: 4-phenylbenzophenone, 4-phenylbenzoyl benzoic acid ethylhexyl ester, and 4-phenylbenzoyl benzoic acid amyl ester were each added separately to the multifunctional acrylate di-pentaerythritol hexaacrylate (DPHA, Miwon Company) in amounts of 2, 4, 6, and 8 weight %, and stirred for 30 minutes at room temperature.

[4] = UV-spectra measurement (absorption maximum, molar extinction coefficient); settings: ethyl acetate; for Molar extinction coefficient: at absorption maximum
Method: Spectra were acquired using a Unicam UV-2 UV/VIS spectrophotometer. All absorption spectra were obtained using 1 cm cuvettes, scanning within the 200-800 nm range. Solutions were prepared in a 100 cm^3 volumetric flask, and if required, subsequently diluted so that a maximum absorbance of less than 2 was obtained. From the absorption the molar extinction coefficient e was calculated in liter·mol^−1·cm^−1.

[5] = Viscosity of the neat ester; settings: at 25° C.

Row | Structure (SMILES) | Solubility in PPTTA ([2]; 2 weight % in PPTTA) | Solubility in PPTTA ([2]; 4 weight % in PPTTA) | Solubility in PPTTA ([2]; 6 weight % in PPTTA) | Solubility in PPTTA ([2]; 8 weight % in PPTTA) | Solubility in DPHA ([3]; 2 weight % in DPHA) | Solubility in DPHA ([3]; 4 weight % in DPHA) | Solubility in DPHA ([3]; 6 weight % in DPHA) | Solubility in DPHA ([3]; 8 weight % in DPHA) | Molar extinction coefficient [4] | Absorption maximum [4] | UV-spectroscopy: λ max [4] | State of the solution at 5° C. ([1]; 1:1 mixture in weight with dimethylaminobenzoic acid ethylhexyl ester) | Viscosity [5] | Behaviour of the solution upon cooling to room temperature [1] | Solubility in PPTTA compared with 4-phenyl benzophenone [2] | Solubility in DPHA compared with 4-phenyl benzophenone [3]
1 | COC(=O)c1ccccc1C(=O)c1ccc(-c2ccccc2)cc1 [4-phenylbenzoyl benzoic acid methyl ester] |  |  |  |  |  |  |  |  |  |  |  |  |  | instability and precipitation |  | 
2 | O=C(c1ccccc1)c1ccc(-c2ccccc2)cc1 [Example 1, 4-phenyl benzophenone, reference compound] | solution | hazy | Solid residuals | Solid residuals | solution | solution | Hazy- opaque | Solid residuals |  |  |  |  |  | precipitated |  | 
3 | CCCCC(CC)COC(=O)c1ccccc1C(=O)c1ccc(-c2ccc(-c3ccccc3)cc2)cc1 (stereo not shown) [Example 12, 4-Terphenoyl Benzoic Acid Ethylhexyl Ester] |  |  |  |  |  |  |  |  | 24900 liter · mol^−1 · cm · ^−1 | 309 (ethyl acetate) nm | 309 nm |  |  |  |  | 

Second part, led by results:

Row | Solubility in PPTTA ([2]; 2 weight % in PPTTA) | Solubility in PPTTA ([2]; 4 weight % in PPTTA) | Solubility in PPTTA ([2]; 6 weight % in PPTTA) | Solubility in PPTTA ([2]; 8 weight % in PPTTA) | Solubility in DPHA ([3]; 2 weight % in DPHA) | Solubility in DPHA ([3]; 4 weight % in DPHA) | Solubility in DPHA ([3]; 6 weight % in DPHA) | Solubility in DPHA ([3]; 8 weight % in DPHA) | Molar extinction coefficient [4] | Absorption maximum [4] | UV-spectroscopy: λ max [4] | State of the solution at 5° C. ([1]; 1:1 mixture in weight with dimethylaminobenzoic acid ethylhexyl ester) | Viscosity [5] | Structure (SMILES) | Behaviour of the solution upon cooling to room temperature [1] | Solubility in PPTTA compared with 4-phenyl benzophenone [2] | Solubility in DPHA compared with 4-phenyl benzophenone [3]
4 | solution | solution | solution | solution | solution | solution | solution | solution | 20100 liter · mol^−1 · cm · ^−1 | 287 (ethyl acetate) nm | 287 nm | stayed liquid | 12 Pa·s | CCCCC(CC)COC(=O)c1ccccc1C(=O)c1ccc(-c2ccccc2)cc1 (stereo not shown) [Example 9, 4-Phenylbenzoyl Benzoic Acid Ethyl Hexyl Ester] |  | better solubility than 4-phenyl benzophenone | better solubility than 4-phenyl benzophenone
5 | solution | solution | solution | solution | solution | solution | solution | solution |  |  | 286 nm |  | 13 Pa·s | CCCCCOC(=O)c1ccccc1C(=O)c1ccc(-c2ccccc2)cc1 [Example 10, 4-Phenylbenzoyl Benzoic Acid Amyl Ester] |  | better solubility than 4-phenyl benzophenone | better solubility than 4-phenyl benzophenone
